Data reported in US20130116185A1, “PHOSPHATIDYLINOSITOL 3-KINASES ACTIVITY REGULATOR INCLUDING THE FIFTH ZINC FINGER DOMAIN OF FOG2” (SNU R&DB FOUNDATION, priority 2010, published 2013).
Entries after “also recorded” stand apart in the source; their conditions may differ.

Key:
MDA MB 231 cells [1] = test: Cell proliferation MTT assay; type: cell-based
Protocol: Because the PI3K activation is critical in cell growth, the cell proliferation was analyzed to investigate the inhibitory effect of the FOG2 zinc finger domain using the MTT assay.
MDA MB 231 cells were seeded in a 96-well plate, and transfected with 100 ng DNA of pCKflag, FOG2-wt, FOG2-ZF-5-m or FOG2-ZF-6-m using Lipofectamine 2000. On 3 days post-transfection, the MTT assay was performed.
MDA MB 231 cells (2×10^3 cells) were seeded in a 96-well plate and treated with 4 μM each peptide for 3 days. After the treatment, 50 μl of MTT solution (2 mg/ml) was added to each well, incubated at 37° C. for 1 hr. Then, 150 μl of DMSO was added to each well and the absorbance value of each well was measured at 590 nm using a microplate reader.

MDA MB 231 cells [2] = test: Cell migration, modified Boyden chamber method; type: cell-based; conditions: 4 μM peptide, 2 days of treatment, 18 hr migration, FIG. 3B
Protocol: MDA MB 231 cells were transfected with pCK-flag (control), FOG2-wt (wild type) and FOG2 mutants having modified zinc finger domain (FOG2-ZF-5-m and FOG2-ZF-6-m). The cell migration was then analyzed using the modified Boyden chamber method (Albini A et al., Cancer Res 1987 47:3239-45). Following the transfection for 24 hr, MDA MB 231 cells (1×10^5) were suspended in a serum-free medium and seeded in triplicate in the upper part of BD chamber ([…] pore size). The lower part was filled with the serum-free medium. Following the incubation at 37° C. for 18 hr, non-migrating cells positioned at the upper surface of filters were cleaned with a cotton swab. The migrating cells passing through the lower surface of filters were fixed with 70% ethanol and treated with the Giemsa staining solution for 50 min. Then, the cells were rinsed with water and observed under a microscope. The cell migration rate was determined by counting the number of cells present in randomly-selected six sections and the migration range was expressed as the average number of cells per a microscopic field.
MDA MB 231 cells were incubated with 4 μM Mock (control, DMSO), 4 μM ZF-5-wt-24, 4 μM ZF-5-m-24, 4 μM ZF-5-wt-20 or 4 μM ZF-3-wt-21. After treatment, the cell migration was analyzed using the modified Boyden chamber method (Albini A et al., Cancer Res 1987 47:3239-45). After 2 days of treatment, MDA MB 231 cells (1×10^5) were suspended in the serum free medium and seeded in triplicate in the upper part of BD chamber ([…] pore size). The lower part was filled with the serum free medium. Following the incubation at 37° C. for 18 hr, non-migrating cells positioned at the upper surface of filters were cleaned with the cotton swab. The migrating cells passing through the lower side surface of filters were fixed with 70% ethanol and stained using the Giemsa stain method. The cell migration rate was determined by counting the number of cells present in randomly-selected six sections and the migration range was expressed as the average number of cells per a microscopic field.

PI3K [3] = biological target: T1, PI3K (Homo sapiens, UniProt P27986); test: IGF-1-induced PI3K activation in Hep3B cells incubated with peptides; type: cell-based; set-up: The cell lysates were immunoprecipitated with p85α (sc-1637, Santa Cruz) and Protein G-Sepharose beads; endogenous in cells; host or cells: Hep3B; conditions: 4 μM peptides, 48 hr, FIG. 2C
T1 sequence (P27986 whole entry): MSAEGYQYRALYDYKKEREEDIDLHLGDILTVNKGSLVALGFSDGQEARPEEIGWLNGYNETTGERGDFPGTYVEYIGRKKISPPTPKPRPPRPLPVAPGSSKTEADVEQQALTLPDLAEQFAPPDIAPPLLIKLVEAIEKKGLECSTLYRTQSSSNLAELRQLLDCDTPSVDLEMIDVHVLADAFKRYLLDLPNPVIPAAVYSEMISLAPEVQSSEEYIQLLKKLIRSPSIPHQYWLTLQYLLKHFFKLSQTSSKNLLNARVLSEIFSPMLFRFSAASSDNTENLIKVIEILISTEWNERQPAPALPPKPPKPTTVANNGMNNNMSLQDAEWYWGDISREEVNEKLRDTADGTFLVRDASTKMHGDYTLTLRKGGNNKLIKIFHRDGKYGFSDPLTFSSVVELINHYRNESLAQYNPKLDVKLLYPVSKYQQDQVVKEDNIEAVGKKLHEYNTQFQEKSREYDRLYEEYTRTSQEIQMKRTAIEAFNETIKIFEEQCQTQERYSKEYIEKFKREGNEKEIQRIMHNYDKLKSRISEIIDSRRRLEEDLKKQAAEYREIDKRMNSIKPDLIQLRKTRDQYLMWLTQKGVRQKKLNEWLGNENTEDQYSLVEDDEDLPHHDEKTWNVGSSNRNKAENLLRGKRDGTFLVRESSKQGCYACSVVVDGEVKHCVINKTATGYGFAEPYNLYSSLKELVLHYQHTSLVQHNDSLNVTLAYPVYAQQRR
Protocol: (§1) For measurement of PI3K activity, 10 μl of sonicated PIP2 (1 μg/μl, Calbiochem), 10 μl of 100 mM MgCl2 and 1 μl of [-^32P]ATP (500 μCi/ml) were added to the kinase buffer (10 mM Tris-HCl (pH 7.4), 150 mM NaCl, 1 mM Na3VO4, 10 mM ZnCl2) and incubated at 37° C. for 30 min. After incubation, 20 μl of 6 N HCl was added to stop the reaction and PIP2 was extracted by treatment with 200 μl of methanol:chloroform (1:1) solution. The amount of radioactively labeled PIP2 in the extract was measured using a scintillator counter.
In addition, Hep3B liver cancer cells were incubated with 4 μM peptides for 48 hr and the PI3K activity was analyzed.

HCT116 cells = test: Colony formation assay in 0.3% agar; type: cell-based; conditions: synthesized peptide, one week, colonies over 1 mm counted, FIG. 3C
Protocol: HCT116 cells (1×10^3) were trypsinized and seeded in triplicate in a six-well plate. The serum-free medium containing the synthesized peptide in <Example 3> and 0.3% agar was incubated with the cells. One week after treatment, the generated colony was visualized with 0.5 mg/ml NBT (Nitro blue tetrazolium chloride) and the colonies over 1 mm in diameter were counted.

MCF 7 = test: Apoptosis by FACS analysis in MCF7 cells; type: cell-based; conditions: synthesized peptides, FIG. 7D
Text: FIG. 7D is a graph showing the apoptotic effect by synthesized zinc finger domain peptides of FOG2 in MCF7 cells according to FACS analysis;

PI3K [4] = biological target: T1, PI3K; test: In vitro competition analysis (PI3K immunoprecipitated from 293T cell lysates with p85α antibody plus peptides); type: biochemical; set-up: The cell lysates were immunoprecipitated with p85α (sc-1637, Santa Cruz) and Protein G-Sepharose beads; endogenous in cells; conditions: peptides 1 μM, 5 μM and 10 μM, dose-dependent, compared with ZF-3-wt-21, FIG. 2B
Protocol: The in vitro competition analysis was performed by PI3K immunoprecipitation in 293T cells. The activated PI3K was extracted from the 293T cell lysates by immunoprecipitating with p85α antibody simultaneously with addition of the synthesized peptides (1 μM, 5 μM and 10 μM). The PI3K activation was induced as described above.

Akt = Akt phosphorylation by Western blot in Hep3B cells treated with peptide and IGF-1; type: cell-based; conditions: 4 μM peptide 2 days, serum-free 24 hr, IGF-1 30 min, FIG. 2D
Protocol: To test whether the Akt activity induced by IGF-1 treatment is inhibited by the synthesized peptides, Hep3B cells were incubated with IGF-1 and ZF-5-wt-24 […] and the expressions of Akt and pAkt were analyzed.
Hep3B cells were incubated with 4 μM ZF-5-wt-24 for 2 days and then further incubated in a serum-free media for 24 hr. Afterwards, the cells were incubated with IGF-1 for 30 min and subject to the Western blot analysis. Mock (DMSO) was used as a control.

MDA MB 231 cells [5] = test: Apoptosis by FACS analysis (propidium iodide) in MDA MB 231 cells; type: cell-based; conditions: synthesized peptides, FIG. 7C
Protocol: PI3K inactivation has been reported to cause cancer cell apoptosis, and FOG2 is known to inhibit the PI3K activity. To test whether PI3K inactivation by overexpressing FOG2 induces apoptosis, MDA MB 231 cells overexpressed FOG2 were analyzed with FACS.
MDA MB 231 cells were incubated with Full-FOG2[1-1151], FOG2[1-412], FOG2[413-789] or FOG2[802-1151]. The cells (5×10^4) were seeded in a 12-well plate and transfected with 1 μg of Full-FOG2[1-1151], FOG2[1-412], FOG2[413-789] or FOG2[802-1151] using Lipofectamine 2000. The cells were incubated at 37° C. for 2 days and subject to FACS analysis.
The cells were incubated with FOG2 fragments and fixed with 70% ethanol for 16 hr. The fixed cells were stained using RNase (5 mg/ml) and propidium iodide ([…]). The amount of DNA in stained cells was analyzed with Cell Quest program of FACS caliber (Becton Dickinson).

PI3K [6] = biological target: T1, PI3K; test: PI3K activity in MDA MB 231 cells incubated with zinc finger domain peptides; type: cell-based; set-up: The cell lysates were immunoprecipitated with p85α (sc-1637, Santa Cruz) and Protein G-Sepharose beads; endogenous in cells; conditions: synthesized peptides, FIG. 5
Protocol: as §1
For peptide treatment, cells were trypsinized to detach them from a culture dish and their aliquot (2×10^5 cells) was incubated with 4 μM peptides in 100 mm dishes. The control was incubated with Mock (DMSO).

IGF-1-induced PI3K activation (PI3K [3]): inhibited
reduction of PI3K activity (PI3K [4]): about 40%
PI3K activity (PI3K [6]): decrease PI3K activity
Substance: ZF-5-wt-24: The peptide comprising a portion of the fifth zinc finger domain of FOG2 (24 amino acids); residues 547-570 (GATCFECNITFNNLDNYLVHKKHY)
reduction of cell proliferation (MDA MB 231 cells [1]; 4 μM peptide for 3 days): about 40%
inhibitory effect on cell proliferation (MDA MB 231 cells [1]; synthesized peptide, increasing concentration, FIG. 6B): reduces the cancer cell proliferation; also recorded: became more prominent as ZF-5-wt-24 concentration increased
reduction of cell migration (MDA MB 231 cells [2]): reduce the cell migration
number of colonies / colony formation (HCT116 cells): reduces the colony formation; also recorded: reduced
apoptosis (MCF 7): promoted apoptosis
Akt phosphorylation induced by IGF-1 stimulation (Akt): reduced
apoptosis (MDA MB 231 cells [5]): promoted apoptosis
